Experimental data reported in the supplement of paper PMC10307832.

Legend:
Test in all cases: relative viability (nuclei count vs DMSO), 5 days (fraction); higher = more cells survive
[1] = compound: O=S(=O)(c1ccccc1)N(CC(F)(F)F)c1ccc(C(O)(C(F)(F)F)C(F)(F)F)cc1 + Cc1nc(NC(=O)N2CCC[C@H]2C(N)=O)sc1-c1ccnc(C(C)(C)C(F)(F)F)c1 [Alpelisib] (partner 2 µM)
How it was run: (§1)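 Lung cancer cell lines, seeded in 1536-well plates, were treated the following day by pin tool with a single drug or with five library-drug doses (not always all listed) in √10 steps on top of a fixed anchor-drug dose. Cells were fixed and nuclei stained in one step after 5 days, and nuclei were counted. Relative viability is the nuclei count for treated wells divided by that for vehicle wells, reported as medians of duplicate plates.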

[2] = compound: C1=CC2=C(C=CC(=C2)C=C3C(=O)NC(=NCC4=CC=CS4)S3)N=C1 [RO-3306] + COc1cc2c(Oc3ccc(NC(=O)C4(C(=O)Nc5ccc(F)cc5)CC4)cc3F)ccnc2cc1OCCCN1CCOCC1 [Foretinib] (partner 0.25 µM)
How it was run: as §1

[3] = compound: C1=CC2=C(C=CC(=C2)C=C3C(=O)NC(=NCC4=CC=CS4)S3)N=C1 [RO-3306] + COc1cccc2cc(-c3nc([C@H]4CC[C@H](C(=O)O)CC4)n4ncnc(N)c34)[nH]c12 [OSI-027] (partner 0.5 µM)
How it was run: as §1

[4] = compound: O=S(=O)(c1ccccc1)N(CC(F)(F)F)c1ccc(C(O)(C(F)(F)F)C(F)(F)F)cc1 + COc1cc2c(Oc3ccc(NC(=O)C4(C(=O)Nc5ccc(F)cc5)CC4)cc3F)ccnc2cc1OCCCN1CCOCC1 [Foretinib] (partner 0.25 µM)
How it was run: as §1

[5] = compound: O=S(=O)(c1ccccc1)N(CC(F)(F)F)c1ccc(C(O)(C(F)(F)F)C(F)(F)F)cc1 + C[C@]1(O)C[C@@H](c2nc(-c3ccc4ccc(-c5ccccc5)nc4c3)c3c(N)nccn32)C1 [Linsitinib] (partner 1 µM)
How it was run: as §1

Row | Cell Line | relative viability ([1]; first compound 0.8 µM) | relative viability ([1]; first compound 2.53 µM) | relative viability ([1]; first compound 8 µM) | relative viability ([2]; first compound 0.01 µM) | relative viability ([2]; first compound 0.03162 µM) | relative viability ([2]; first compound 0.1 µM) | relative viability ([2]; first compound 0.3162 µM) | relative viability ([2]; first compound 1 µM) | relative viability ([3]; first compound 0.01 µM) | relative viability ([3]; first compound 0.03162 µM) | relative viability ([3]; first compound 0.1 µM) | relative viability ([3]; first compound 0.3162 µM) | relative viability ([3]; first compound 1 µM) | relative viability ([4]; first compound 0.8 µM) | relative viability ([4]; first compound 2.53 µM) | relative viability ([4]; first compound 8 µM) | relative viability ([5]; first compound 0.8 µM) | relative viability ([5]; first compound 2.53 µM) | relative viability ([5]; first compound 8 µM)
1 | HCC-15 | 0.908 | 0.809 | 0.823 | 1.19 | 0.954 | 0.963 | 1.01 | 0.93 | 0.664 | 0.562 | 0.649 | 0.808 | 0.608 | 1.03 | 0.951 | 0.847 | 0.798 | 0.758 | 0.812
2 | HCC-44 | 0.913 | 0.946 | 0.927 | – | – | – | – | – | 0.371 | 0.441 | 0.434 | 0.402 | 0.387 | – | – | – | 0.717 | 0.705 | 0.658
3 | NCI-H2170 | 0.961 | 0.804 | 0.798 | 0.929 | 0.925 | 0.98 | 1.11 | 0.985 | 0.819 | 0.702 | 0.726 | 0.655 | 0.697 | 1.02 | 0.88 | 0.837 | – | – | –
4 | NCI-H2228 | 0.88 | 0.491 | 0.502 | 0.759 | 0.808 | 0.954 | 0.641 | 0.635 | 0.652 | 0.411 | 0.557 | 0.685 | 0.429 | 0.65 | 0.657 | 0.839 | 0.615 | 0.727 | 0.391
5 | NCI-H727 | 0.549 | 0.465 | 0.489 | 1.03 | 0.94 | 0.74 | 1.21 | 1.01 | 0.567 | 0.548 | 0.557 | 0.608 | 0.674 | 0.83 | 0.846 | 0.867 | 0.279 | 0.376 | 0.212
6 | NCI-H522 | – | – | – | – | – | – | – | – | 0.68 | 0.695 | 0.622 | 0.711 | 0.715 | – | – | – | – | – | –
7 | NCI-H1563 | 0.923 | 0.833 | 0.788 | 0.847 | 1.03 | 0.881 | 0.956 | 0.939 | 0.671 | 0.733 | 0.736 | 0.735 | 0.725 | 0.922 | 0.827 | 0.893 | 1.2 | 1.17 | 1.06
8 | EPLC-272H | 0.818 | 1.04 | 0.681 | 0.723 | 0.541 | 0.598 | 0.683 | 0.533 | 0.259 | 0.252 | 0.29 | 0.223 | 0.283 | 0.544 | 0.599 | 0.702 | 1.12 | 1.32 | 1.11
9 | NCI-H1437 | 0.904 | 0.771 | 0.718 | 1.38 | 1.21 | 1.28 | 1.28 | 1.25 | 0.936 | 0.814 | 0.825 | 0.912 | 0.878 | 1.35 | 1.09 | 0.979 | 1.07 | 0.859 | 0.893
10 | CAL-12T | 1.52 | 1.13 | 1.02 | 1.18 | 1.06 | 1.16 | 1.07 | 1.23 | 0.378 | 0.615 | 0.585 | 0.616 | 0.597 | 1.06 | 0.962 | 0.936 | 0.719 | 0.499 | 0.542
11 | SK-LU-1 | 1.16 | 1.23 | 0.903 | 0.853 | 0.783 | 0.831 | 0.778 | 0.712 | 0.283 | 0.285 | 0.325 | 0.314 | 0.339 | 0.716 | 0.857 | 0.695 | 1.09 | 0.97 | 0.881
12 | LCLC-97TM1 | 0.241 | 0.252 | 0.263 | 0.928 | 0.866 | 0.927 | 0.9 | 1.01 | 0.53 | 0.391 | 0.476 | 0.549 | 0.454 | 0.914 | 0.928 | 0.805 | 0.197 | 0.179 | 0.202
13 | LXF-289 | 1.03 | 0.912 | 0.789 | 0.985 | 0.956 | 0.945 | 0.996 | 0.958 | 0.801 | 0.778 | 0.681 | 0.739 | 0.63 | 0.993 | 0.88 | 0.812 | 0.929 | 0.795 | 0.821
14 | HCC-366 | 0.469 | 0.436 | 0.428 | 0.91 | 0.96 | 0.942 | 0.884 | 0.931 | 1.13 | 1.06 | 0.847 | 0.955 | 0.654 | 0.96 | 0.937 | 1.04 | 0.922 | 0.601 | 0.649
15 | NCI-H1355 | 0.861 | 0.727 | 0.715 | 1.04 | – | 1.05 | 1.02 | 0.942 | 0.379 | – | 0.378 | 0.375 | 0.337 | 1.06 | 0.978 | 1.01 | 0.762 | 0.65 | 0.598
